According to patent US20070099986A1, “Preventives/remedies for urinary disturbance” (priority 2005, published 2007):
Structures can show the parent of a compound that is named as a salt.

Experiments:
[1] = molecular target: T1, acetylcholinesterase from human erythrocyte origin (Homo sapiens, UniProt P22303); assay: Acetylcholinesterase-inhibitory action, acetylthiocholine method (Ellman method); type: biochemical; settings: repeated at least 3 times, read-out: AChE: IC50
T1 construct: Acetylcholinesterase from human erythrocyte origin (Sigma Chemical Co.); purchased Sigma Chemical Co; host or cells: human erythrocytes (tissue-derived enzyme)
Description: a) Measurement of Acetylcholinesterase-Inhibitory Action
Acetylcholinesterase-inhibitory action of the Example Compounds was measured using acetylcholinesterase from human erythrocyte origin according to the acetylthiocholine method (Ellman method).
Acetylcholinesterase from human erythrocyte origin (Sigma Chemical Co.) was dissolved in distilled water at a concentration of 0.2 IU/mL to give an enzyme authentic sample. To a 96-well microplate 20 μL of drug solution, 30 μL of 80 mM Tris-HCl (pH 7.4), 50 μL of enzyme authentic sample and 50 μL of 5 mM 5,5-dithio-bis(2-nitrobenzoic acid) (Sigma Chemical Co.) were added, and the plate was shaken for 10 seconds. Then, 50 μL of acetylthiocholine iodide (Sigma Chemical Co.) was added, and the plate was again shaken. Immediately after shaking, absorbance at 414 nm was measured at intervals of 30 seconds for 10 minutes.
The experiment was repeated at least 3 times for each compound to obtain 50% inhibitory concentration (IC50). Moreover, in the same manner as mentioned above, acetylcholinesterase-inhibiting activity of distigmine was measured.

[2] = molecular target: T2, human adrenaline α1A receptor (Homo sapiens, UniProt P35348); assay: α1A receptor binding inhibitory activity, [3H]-Prazosin binding to CHO-K1 membrane fraction; settings: inhibition of [3H]-Prazosin (2.5 nM) binding to membrane fraction of CHO-K1 cells expressing human α1A receptor
T2 construct: expressed in transfected cells
T2 sequence (P35348 1-466): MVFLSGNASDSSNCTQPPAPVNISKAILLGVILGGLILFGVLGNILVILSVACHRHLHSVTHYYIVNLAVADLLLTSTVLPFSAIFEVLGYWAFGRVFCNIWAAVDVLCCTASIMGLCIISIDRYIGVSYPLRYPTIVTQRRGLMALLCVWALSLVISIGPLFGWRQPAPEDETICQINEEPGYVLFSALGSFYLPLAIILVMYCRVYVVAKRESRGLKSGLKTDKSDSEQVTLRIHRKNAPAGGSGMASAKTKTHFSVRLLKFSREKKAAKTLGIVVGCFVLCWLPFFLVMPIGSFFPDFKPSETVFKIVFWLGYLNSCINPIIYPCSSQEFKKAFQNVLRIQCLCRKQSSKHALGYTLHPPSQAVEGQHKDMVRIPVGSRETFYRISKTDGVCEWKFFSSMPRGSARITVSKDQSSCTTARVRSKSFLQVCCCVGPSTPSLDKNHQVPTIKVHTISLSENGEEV
Description: b) Measurement of α1 A Receptor Binding Inhibitory Activity
The genetic engineering procedures as described below were based on the methods described in the textbook (Maniatis, et al., Molecular Cloning, Cold Spring Harbor Laboratory, 1989) or the methods described in the protocols attached to the reagents.
(i) Preparation of Expression Plasmid of Human Adrenaline α1 A Receptor
An adrenaline α1 A receptor gene was cloned from human liver cDNA by means of a PCR method. PCR reaction was performed in a Gene Amp PCR System 9700 (Applied Biosystems) with 200 ng of a human liver cDNA library (Takara Shuzo Co., Ltd.) as a template, by adding 50 pmol of each of the primer sets shown below which were prepared with referring to the base sequence of the adrenaline α1 A receptor gene reported by Hirasawa A. et al. (Biochem. Biophys. Res. Commun., 195, 902-909 (1993)): 5′-[…]-3′ [SEQ ID NO: 1], and 5′-[…]-3′ [SEQ ID NO: 2], and using a TaKaRa Pyrobest DNA Polymerase (Takara Shuzo Co., Ltd.) (reaction condition: 45 cycles of 94° C. for 15 seconds and 68° C. for 3 minutes and 30 seconds).
Thus obtained PCR fragments were digested with a restriction enzyme Eco RI (Takara Shuzo Co., Ltd.) and Sal I (Takara Shuzo Co., Ltd.), and then subjected to electrophoresis on agarose gel to recover DNA fragments. […]

T1 sequence (P22303 32-617 isoform P22303-2 limits assumed): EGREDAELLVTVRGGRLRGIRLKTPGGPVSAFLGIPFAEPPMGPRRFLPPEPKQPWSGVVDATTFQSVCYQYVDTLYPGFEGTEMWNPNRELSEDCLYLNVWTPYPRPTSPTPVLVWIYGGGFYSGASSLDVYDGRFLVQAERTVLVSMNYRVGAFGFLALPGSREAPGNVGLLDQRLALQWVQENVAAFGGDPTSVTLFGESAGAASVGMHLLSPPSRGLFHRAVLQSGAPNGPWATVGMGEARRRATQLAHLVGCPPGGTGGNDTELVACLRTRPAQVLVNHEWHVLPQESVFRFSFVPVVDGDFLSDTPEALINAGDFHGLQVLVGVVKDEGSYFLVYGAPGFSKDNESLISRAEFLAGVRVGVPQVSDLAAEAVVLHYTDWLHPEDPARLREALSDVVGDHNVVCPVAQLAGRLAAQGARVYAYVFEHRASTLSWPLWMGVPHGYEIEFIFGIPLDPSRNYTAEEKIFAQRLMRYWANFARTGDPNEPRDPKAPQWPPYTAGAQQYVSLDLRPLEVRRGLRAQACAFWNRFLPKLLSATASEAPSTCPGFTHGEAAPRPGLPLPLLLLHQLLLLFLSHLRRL

| Structure (SMILES) | melting point [°C] | IC50 [1] [nM] | IC50 [2] [nM] |
| --- | --- | --- | --- |
| Cl.NS(=O)(=O)c1cc(C(=O)CCCCNCCc2ccccc2OC(F)(F)F)cc2c1CCC2 | 139 to 141 | – | – |
| Cl.NS(=O)(=O)c1cc(C(=O)CCCCCNCCc2ccccc2OC(F)(F)F)cc2c1OCC2 | 85 to 87 | – | – |
| COc1ccccc1CCNCCCCCC(=O)c1cc2c(c(S(N)(=O)=O)c1)OCC2.Cl | 92 to 94 | – | – |
| Cl.NS(=O)(=O)c1cc(C(=O)CCCCCNCCc2ccccc2Cl)cc2c1OCC2 | 107 to 109 | – | – |
| CNS(=O)(=O)c1cc(C(=O)CCCCNCCc2ccccc2OC(F)(F)F)cc2c1OCC2.Cl | 135 to 137 | – | – |
| CC(C)NS(=O)(=O)c1cc(C(=O)CCCCNCCc2ccccc2OC(F)(F)F)cc2c1OCC2.Cl | 173 to 175 | – | – |
| COc1ccc(C(=O)CCCCNCCc2ccccc2OC(F)(F)F)cc1S(N)(=O)=O.Cl | 169 to 171 | – | – |
| COc1ccc(C(=O)CCCCNCCc2ccccc2OC(F)(F)F)cc1S(=O)(=O)NC(C)C.Cl | 156 to 158 | – | – |
| Cl.NS(=O)(=O)c1cc(C(=O)CCCCNCCc2ccccc2OC(F)(F)F)cc2c1OCCO2 | 111 to 113 | – | – |
| CC(=O)Nc1cc(C(=O)CCCCNCCc2ccccc2OC(F)(F)F)cc2c1OCC2.Cl | 120 to 122 | – | – |
| COc1ccccc1CCNCCCCC(=O)c1cc2c(c(S(N)(=O)=O)c1)CCC2.Cl | 106 to 108 | – | – |
| CS(=O)(=O)Nc1cc(C(=O)CCCCNCCc2ccccc2OC(F)(F)F)cc2c1OCC2.Cl | 112 to 114 | – | – |
| NS(=O)(=O)c1cc(C(O)CCCCNCCc2ccccc2OC(F)(F)F)cc2c1OCC2.O=C(O)/C=C\C(=O)O (stereo not shown) | 61 to 63 | – | – |
| Cl.NS(=O)(=O)c1cc(C(=O)CCCCNCCc2ccccc2Cl)cc2c1CCC2 | 167 to 169 | – | – |
| CNS(=O)(=O)c1cc(C(=O)CCCCNCCc2ccccc2OC(F)(F)F)cc2c1CCC2.Cl | 143 to 145 | – | – |
| CN(CCCCCCN(C)C(=O)Oc1ccc[n+](C)c1)C(=O)Oc1ccc[n+](C)c1 [Distigmine, distigmine, reference compound] | – | 270 | – |
| NS(=O)(=O)c1cc(C(=O)CCCCNCCc2ccccc2OC(F)(F)F)cc2c1OCC2 [Example 6, 5-[5-({2-[2-(Trifluoromethoxy)phenyl]ethyl}amino)-pentanoyl]-2,3-dihydro-1-benzofuran-7-sulfonamide tosylate] | – | 80 | 19 |
| COc1ccccc1N1CCN(CCCNc2cc(=O)n(C)c(=O)n2C)CC1 [Urapidil, urapidil, reference compound] | – | – | 470 |
